# Measurements published in patent US20240279215A1 (Cytokinetics, Incorporated, priority 2022, published 2024).
# Target: human NAMPT (Homo sapiens (Human), UniProt P43490)
# Experiment: NMN fluorescence biochemical assay (human recombinant NAMPT enzyme assay)
# In short: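 Activation of recombinant human NAMPT (6 nM) was tested with 2.5 mM ATP, 20 μM PRPP and 150 μM nicotinamide in 50 mM HEPES pH 7.2 for 60 min at ambient temperature. NMN was derivatized with acetophenone/KOH/formic acid and read by fluorescence (355/460 nm) after 40 min.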
# Sequence of human NAMPT (P43490 whole entry): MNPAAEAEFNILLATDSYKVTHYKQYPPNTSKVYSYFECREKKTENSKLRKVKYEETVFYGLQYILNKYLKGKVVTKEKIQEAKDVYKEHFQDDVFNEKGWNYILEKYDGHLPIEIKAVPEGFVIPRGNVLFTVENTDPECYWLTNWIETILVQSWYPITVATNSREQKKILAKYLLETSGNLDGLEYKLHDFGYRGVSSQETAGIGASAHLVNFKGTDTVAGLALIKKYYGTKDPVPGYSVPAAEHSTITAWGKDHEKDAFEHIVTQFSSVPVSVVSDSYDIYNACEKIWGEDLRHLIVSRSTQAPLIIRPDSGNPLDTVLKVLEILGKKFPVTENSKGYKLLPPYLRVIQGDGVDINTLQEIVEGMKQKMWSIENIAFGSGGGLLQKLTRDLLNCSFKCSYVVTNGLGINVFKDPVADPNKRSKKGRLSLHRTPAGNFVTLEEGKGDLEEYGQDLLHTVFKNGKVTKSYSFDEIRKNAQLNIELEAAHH
Compound,AC1.4 Human [µM],EC50 [µM]
"Cc1ccc(C(=O)NCc2ccc(NC(=O)OCc3ccc(OC(F)F)cc3)cc2)cn1 [Compound 275, (4-(difluoro-13-methyl)phenyl)methyl (4-((6-methylnicotinamido)methyl)phenyl)carbamate]",3.32,12.6
"O=C(Nc1ccc(CNC(=O)c2cnco2)cc1)OCc1ccc(Cl)cc1 [Compound 187, (4-chlorophenyl)methyl N-{4-[(1,3-oxazol-5-ylformamido)methyl]phenyl}carbamate]",1.62,11.2
"NC(=O)c1ccc(COC(=O)Nc2ccc(CN3CCC[C@@H]3c3cccnc3)cc2)cc1 [Compound 2, (4-carbamoylphenyl)methyl N-(4-{[(2R)-2-(pyridin-3-yl)pyrrolidin-1-yl]methyl}phenyl)carbamate]",0.05,0.96
"CC(=O)N1CC2(CC(c3ccc(NC(=O)OCc4cnco4)cc3F)C2)C1 [Compound 401, oxazol-5-ylmethyl (4-(2-acetyl-2-azaspiro[3.3]heptan-6-yl)-3-fluorophenyl)carbamate]",0.04,3.37
"COC(=O)N1C2CCC1CC(Cc1ccc(NC(=O)OCc3cnco3)cc1)C2 (stereo not shown) [Compound 407, methyl 3-(4-(((oxazol-5-ylmethoxy)carbonyl)amino)benzyl)-8-azabicyclo[3.2.1]octane-8-carboxylate]",0.26,8.55
"Cc1cc(C(=O)N[C@@H](C)c2ccc(NC(=O)OCc3ccc(Cl)cc3)cc2)n(C)n1 [Compound 139, (4-chlorophenyl)methyl N-{4-[(1S)-1-[(2,5-dimethylpyrazol-3-yl)formamido]ethyl]phenyl}carbamate]",1.11,13.1
"CC(C)n1nccc1C(=O)N[C@@H](C)c1ccc(NC(=O)OCc2ccc(Cl)cc2)cc1 [Compound 181, (4-chlorophenyl)methyl N-{4-[(1S)-1-[(2-isopropylpyrazol-3-yl)formamido]ethyl]phenyl}carbamate]",1.53,15.6
"Cc1ncc(C(=O)N[C@@H](C)c2ccc(NC(=O)OCc3ccc(Cl)cc3)cc2)o1 [Compound 218, (4-chlorophenyl)methyl N-{4-[(1S)-1-[(2-methyl-1,3-oxazol-5-yl)formamido]ethyl]phenyl}carbamate]",1.99,9.06
"C[C@H](NC(=O)Cc1ncco1)c1ccc(NC(=O)OCc2ccc(Cl)cc2)cc1 [Compound 224, 4-chlorobenzyl (S)-(4-(1-(2-(oxazol-2-yl)acetamido)ethyl)phenyl)carbamate]",2.08,10.1
"CC(=O)N1CC2(CC(c3ccc(NC(=O)OCc4cnco4)cc3)C2)C1 [Compound 358, oxazol-5-ylmethyl (4-(2-acetyl-2-azaspiro[3.3]heptan-6-yl)phenyl)carbamate]",0.25,28.9
"Cc1cnoc1C(=O)NCc1ccc(NC(=O)OCc2ccc(Cl)cc2)cc1 [Compound 268, (4-chlorophenyl)methyl N-(4-{[(4-methyl-1,2-oxazol-5-yl)formamido]methyl}phenyl)carbamate]",3.05,13.8
"Cc1ncc(C(=O)NCc2ccc(NC(=O)OCc3ccc(Cl)cc3)cc2)cn1 [Compound 109, (4-chlorophenyl)methyl N-(4-{[(2-methylpyrimidin-5-yl)formamido]methyl}phenyl)carbamate]",0.90,4.71
"Cc1nn(C)c(C(=O)N[C@@H](C)c2ccc(NC(=O)OCc3ccc(Cl)cc3)cc2)c1F [Compound 141, (4-chlorophenyl)methyl N-{4-[(1S)-1-[(4-fluoro-2,5-dimethylpyrazol-3-yl)formamido]ethyl]phenyl}carbamate]",1.17,2.24
"CC(=O)N1CC2(CC(Cc3ccc(NC(=O)OCc4cnco4)cc3F)C2)C1 [Compound 472, oxazol-5-ylmethyl (4-((2-acetyl-2-azaspiro[3.3]heptan-6-yl)methyl)-3-fluorophenyl)carbamate]",0.11,5.63
"O=C(Nc1ccc(CNC(=O)c2ccccn2)cc1)OCc1ccc(Cl)cc1 [Compound 272, (4-chlorophenyl)methyl N-{4-[(pyridin-2-ylformamido)methyl]phenyl}carbamate]",3.18,10.9
"CC(C)n1nccc1C(=O)NCc1ccc(NC(=O)OCc2ccc(Cl)cc2)cc1 [Compound 301, (4-chlorophenyl)methyl N-(4-{[(2-isopropylpyrazol-3-yl)formamido]methyl}phenyl)carbamate]",4.81,26.8
"O=C(Nc1ccc(CNC(=O)c2cncc(F)c2)cc1)OCc1ccc(Cl)cc1 [Compound 271, (4-chlorophenyl)methyl N-(4-{[(5-fluoropyridin-3-yl)formamido]methyl}phenyl)]",3.15,4.8
"CC(=O)N1CC2CCC(C1)C2c1ccc(NC(=O)OCc2cnco2)cc1 (stereo not shown) [Compound 445, oxazol-5-ylmethyl (4-(3-acetyl-3-azabicyclo[3.2.1]octan-8-yl)phenyl)carbamate]",0.56,33.5
"CC(O)(c1ccncc1)c1ccc(NC(=O)OCc2cncs2)cc1 (stereo not shown) [Compound 329, thiazol-5-ylmethyl (4-(1-hydroxy-1-(pyridin-4-yl)ethyl)phenyl)carbamate]",8.65,33.6
"O=C(Nc1ccc(CC2CCN(C3COC3)CC2)cc1)OCc1cnco1 [Compound 80, oxazol-5-ylmethyl (4-((1-(oxetan-3-yl)piperidin-4-yl)methyl)phenyl)carbamate]",0.66,29
"O=C(Nc1ccc(CC2CCN(C(=O)C3COC3)CC2)cc1)OCc1cnco1 [Compound 48, oxazol-5-ylmethyl (4-((1-(oxetane-3-carbonyl)piperidin-4-yl)methyl)phenyl)carbamate]",0.49,31
"O=C(Nc1ccc(CC2CCN(C3COC3)C3CC23)cc1)OCc1cnco1 (stereo not shown) [Compound 455, oxazol-5-ylmethyl (4-((2-(oxetan-3-yl)-2-azabicyclo[4.1.0]heptan-5-yl)methyl)phenyl)carbamate]",0.84,32.4
"Cc1coc(C(=O)N[C@@H](C)c2ccc(NC(=O)OCc3ccc(Cl)cc3)cc2)n1 [Compound 243, 4-chlorobenzyl (S)-(4-(1-(4-methyloxazole-2-carboxamido)ethyl)phenyl)carbamate]",2.38,26.3
"CCc1cc(C(=O)NCc2ccc(NC(=O)OCc3ccc(Cl)cc3)cc2)n(C)n1 [Compound 208, (4-chlorophenyl)methyl N-(4-{[(5-ethyl-2-methylpyrazol-3-yl)formamido]methyl}phenyl)carbamate]",1.87,17.4

# Now from value to molecule:
AC1.4 Human [µM],EC50 [µM],Compound
2.69,10.5,"C[C@@H]1CCCN(C(=O)Cc2ccc(NC(=O)OCc3ccc(Cl)cc3)cc2)C1 [Compound 256, (4-chlorophenyl)methyl N-(4-{2-[(3R)-3-methylpiperidin-1-yl]-2-oxoethyl}phenyl)carbamate]"
1.52,15.1,"O=C(Nc1ccc(CN2CC3CC3C2=O)cc1)OCc1ccc(Cl)cc1 (stereo not shown) [Compound 180, (4-chlorophenyl)methyl N-[4-({2-oxo-3-azabicyclo[3.1.0]hexan-3-yl}methyl)phenyl]carbamate]"
0.50,0.89,"CN(Cc1ccc(NC(=O)OCc2ccc(Cl)cc2)cc1)C(=O)c1ccnn1C [Compound 50, (4-chlorophenyl)methyl N-(4-{[N-methyl-1-(2-methylpyrazol-3-yl)formamido]methyl}phenyl)carbamate]"
1.33,10.1,"CO[C@H]1CCCN(C(=O)Cc2ccc(NC(=O)OCc3ccc(Cl)cc3)cc2)C1 [Compound 161, 4-chlorobenzyl (S)-(4-(2-(3-methoxypiperidin-1-yl)-2-oxoethyl)phenyl)carbamate]"
0.51,8.45,"CN1CC(=O)NC[C@@H]1c1ccc(NC(=O)OCc2ccc(Cl)cc2)cc1 [Compound 54, 4-chlorobenzyl (S)-(4-(1-methyl-5-oxopiperazin-2-yl)phenyl)carbamate]"
1.31,5.8,"Cc1coc(C(=O)N(C)Cc2ccc(NC(=O)OCc3ccc(Cl)cc3)cc2)n1 [Compound 155, (4-chlorophenyl)methyl N-(4-{[N-methyl-1-(4-methyl-1,3-oxazol-2-yl)formamido]methyl}phenyl)carbamate]"
0.42,1.22,"CS(=O)(=O)N1CCC(Cc2ccc(NC(=O)OCc3ccc(Cl)cc3)cc2)CC1 [Compound 38, 4-chlorobenzyl (4-((1-(methylsulfonyl)piperidin-4-yl)methyl)phenyl)carbamate]"
0.44,3.48,"CN(Cc1ccc(NC(=O)OCc2ccc(Cl)cc2)cc1)C(=O)c1cn[nH]c1 [Compound 41, (4-chlorophenyl)methyl N-{4-[(N-methyl-1-1H-pyrazol-4-ylformamido)methyl]phenyl}carbamate]"
1.77,5.28,"Cc1ccc(NC(=O)Cc2ccc(NC(=O)OCc3ccc(Cl)cc3)cc2)cn1 [Compound 199, (4-chlorophenyl)methyl N-(4-{[(6-methylpyridin-3-yl)carbamoyl]methyl}phenyl)carbamate]"
2.93,19.7,"Cc1ccc(N(C)C(=O)Cc2ccc(NC(=O)OCc3ccc(Cl)cc3)cc2)cn1 [Compound 264, (4-chlorophenyl)methyl N-(4-{[methyl(6-methylpyridin-3-yl)carbamoyl]methyl}phenyl)carbamate]"
1.75,11.8,"Cc1n[nH]cc1C(=O)N(C)Cc1ccc(NC(=O)OCc2ccc(Cl)cc2)cc1 [Compound 197, (4-chlorophenyl)methyl N-(4-{[N-methyl-1-(3-methyl-1H-pyrazol-4-yl)formamido]methyl}phenyl)carbamate]"
